Results: patent US20130029937A1, “TREATMENT OF SURFACTANTS” (SOLAEROMED INC., priority 2007, published 2013)

Key:
[1] = CBS dynamic cycling of BLES with added (oxidized) phospholipids; type: physicochemical, bovine; conditions: non-oxidized lipid in BLES containing cholesterol, exposure to ambient air
Description: In this Example, the role of oxidized polyunsaturated phospholipids in causing cholesterol-dependent surfactant dysfunction was studied. Oxidation of surfactant by the Fenton-like reaction or in the presence of ROS in the inflamed lung results in the formation of lipid-peroxides with polyunsaturated phospholipids the principal target. […] This introduction of a hydrophilic group in the formerly hydrophobic region will disrupt lipid packing. […] This is consistent with peroxidized PLPC, CL and other polyunsaturated phospholipids present in surfactant causing dysfunction together with cholesterol. […]
To ensure accurate mixing, additional lipids were added to lipid extracts of BLES or oxBLES as organic solutions. […] Phospholipid concentration was assessed using a phosphate assay (Gentaur Molecular Products, Kampenhout, Belgium) after liberation of free phosphate (Duck-Chong C G (1979) A rapid sensitive method for determining phospholipid phosphorus involving digestion with magnesium nitrate. Lipids 14: 492-497). […] BLES contained 2.60% cholesterol (w/w phospholipids) as determined using an enzymatic assay for cholesterol (Amplex Red Cholesterol Assay, Invitrogen, Eugene, Oreg., USA). hSP-A was added to dried films when indicated to a final concentration of 5% (w/w phospholipids). […]

[2] = captive bubble surfactometer (CBS), oxidized BLES with added cholesterol; type: physicochemical, cattle; conditions: MβCD (20 mmol) in the aqueous phase
Description: In a model study, 0, 5 and 10 weight percent cholesterol was added to a ROS-exposed cattle lipid surfactant extract as an example of how even a normal (physiological) amount of cholesterol renders surfactant exposed to ROS and its derivatives dysfunctional; the function of the surfactant model was determined in a captive bubble surfactometer (CBS).
Surface activity of surfactant was determined with a computer-controlled captive bubble surfactometer (CBS) as described in detail by Gunasekara et al. (Gunasekara L, Schoel W M, Schürch S & Amrein M W (2008) A comparative study of mechanisms of surfactant inhibition. BBA—Biomembranes 1778: 433-444), with two important changes: 1) A transparent capillary was used to deposit a ˜1.0 μL bolus of 27 mg/mL surfactant near the air-buffer interface. The quantity and concentration of surfactant were chosen to minimize effects caused by insufficient surfactant or bulk phase adsorption. This amount of native BLES reliably reproduces minimum and maximum surface tensions as measured in situ at functional reserve capacity and total lung capacity (<1 mN/m and ˜30 mN/m, respectively) (Bachofen H & Schtirch S (2001) Alveolar surface forces and lung architecture. Comparative Biochemistry and Physiology—Part A: Molecular & Integrative Physiology 129: 183-193). […]

[3] = murine model of acute lung injury (acid injury), MβCD aerosol, surfactant function; type: in vivo, mice
Description: In this study, a murine model of acute lung injury (ALI), the earliest phase of ARDS, was created by acid injury of the lung according to published procedures (Allen, G. B. et al. Neither fibrin nor plasminogen activator inhibitor-1 deficiency protects lung function in a mouse model of acute lung injury. American Journal of Physiology-Lung Cellular and Molecular Physiology 296, L277-L285 (2009)) and analyzed with respect to lung mechanics, oxygenation, lung histology, lung ultrastructure, surfactant function and composition (FIGS. 3A-E). Elastance (or its inverse, compliance) and pressure-volume curves are commonly used to assess lung function in ALI/ARDS (JONSON, B. et al. Pressure-volume curves and compliance in acute lung injury. American journal of respiratory and critical care medicine 159, 1172-1178 (1999)).

In the case of `CCCCC/C=C\C/C=C\CCCCCCCC(=O)OC[C@H](COP(=O)(O)OCC(O)COP(=O)(O)OC[C@H](COC(=O)CCCCCCC/C=C\C/C=C\CCCCC)OC(=O)CCCCCCC/C=C\C/C=C\CCCCC)OC(=O)CCCCCCC/C=C\C/C=C\CCCCC` (some centres unmarked) [CL, 1′,3′-Bis[1,2-dilinoleoyl-sn-glycero-3-phospho]-sn-glycerol], the “surfactant function over time” value [1] is reported as “became dysfunctional after several hours”.

For `CCCCC/C=C\C/C=C\CCCCCCCC(=O)O[C@H](COC(=O)CCCCCCCCCCCCCCC)COP(=O)([O-])OCC[N+](C)(C)C` [PLPC, 1-palmitoyl-2-linoleoyl-sn-glycero-3-phosphocholine], the “surfactant function over time” value [1] was “became dysfunctional after several hours”.

In the case of methyl-β-cyclodextrin [MβCD], the surface tension [2] is reported as “almost zero”, the “surfactant function in vivo” value ([3]; in the lung, given as an aerosol) is reported as “can restore surfactant function” and the “minimum surface tension of surfactant” value ([3]; injured mice treated with an MβCD-aerosol) is reported as < 10 mN/m.
